Assay results from patent US12383545B1, “Treatment of migraine” (priority 2018, dated 2025).
Several values for one entry are separate records, joined by “and”; a condition that tells them apart may be missing. Equal values may be shown once.

Columns and labels:
[1] = human, in vivo
Procedure: Data was also evaluated from Study C (described in Example 3) and Study D, a Phase 2b/3 clinical trial evaluating the efficacy, safety, and tolerability of orally administered atogepant. In Study D, after a 28 day baseline period, a total of 652 patients were randomized 1:2:2:2 to receive either atogepant 10 mg (n=94), atogepant 30 mg (n=185), atogepant 60 mg (n=187) or placebo (n=186).
The proportion of patients with weight decrease ≥7% at any point was 2.8% for placebo, 3.8% for atogepant 10 mg, 3.2% for atogepant 30 mg, and 4.9% for atogepant 60 mg. No patients in either study discontinued atogepant due to decreased weight.

[2] = test system: participants with episodic migraine; assay: Study A: Patient Global Impression of Change (PGI-C) and satisfaction with study medication; type: in vivo, human; conditions: for PGI-C responders (“much better” or “very much better”), percentage / Satisfaction with study medication (“satisfied” or “extremely satisfied”), percentage: Week 12, mITT; for PGI-C response, OR (95% CI) vs placebo / Satisfaction with study medication, OR (95% CI) vs placebo: week 12
Source text: Additional prespecified responder analyses included the Patient Global Impression of Change (PGI-C), defined as “much better” or “very much better” at week 12, and satisfaction with study medication, defined as “satisfied” or “extremely satisfied” at weeks 4, 8, and 12.

ALT or AST = assay: Example 5: postbaseline hepatic laboratory parameter values of clinical interest; type: in vivo, human; conditions: safety population
Procedure: In a multicenter, randomized, double-blind, placebo-controlled, parallel-group study designed to evaluate the efficacy, safety, and tolerability of multiple doses and doses regimens of atogepant for the prevention of migraine. The patients were randomized (2:1:2:1:2:1) to 1 of 6 treatment groups: placebo, atogepant 10 mg QD, atogepant 30 mg QD, atogepant 30 mg BID, atogepant 60 mg QD, and atogepant 60 mg BID.
A total of 834 patients were randomized to double-blind treatment (ITT population), and 825 patients took at least 1 dose of double-blind IP (safety population). […] The primary efficacy variable was the change from baseline in mean monthly migraine/probable migraine headache days across the 12-week treatment period. The secondary efficacy variables were the change from baseline in mean monthly headache days across the 12-week treatment period, proportion of patients with at least a 50% reduction in mean monthly migraine/probable migraine headache days across the 12-week treatment period, and the change from baseline in mean monthly acute medication use days across the 12-week treatment period.

[3] = week 12, range across atogepant groups
[4] = Atogepant 10 mg QD (N = 93), same day
[5] = Atogepant 30 mg BID (N = 86), same day

C[C@@H]1[C@H](c2c(F)ccc(F)c2F)C[C@H](NC(=O)c2cnc3c(c2)C[C@@]2(C3)C(=O)Nc3ncccc32)C(=O)N1CC(F)(F)F [atogepant]
TEAE Weight decreased [1]: 5 (0.4%) n (%)
PGI-C responders (“much better” or “very much better”), percentage ([2]; 10 mg): 72.1%
Satisfaction with study medication (“satisfied” or “extremely satisfied”), percentage ([2]; 10 mg): 77.7%
PGI-C response, OR (95% CI) vs placebo ([2]; 10 mg): 3.05
Satisfaction with study medication, OR (95% CI) vs placebo ([2]; 10 mg): 2.77
PGI-C responders (“much better” or “very much better”), percentage ([2]; 30 mg): 73.2%
Satisfaction with study medication (“satisfied” or “extremely satisfied”), percentage ([2]; 30 mg): 80.3%
PGI-C response, OR (95% CI) vs placebo ([2]; 30 mg): 3.33
Satisfaction with study medication, OR (95% CI) vs placebo ([2]; 30 mg): 3.44
PGI-C responders (“much better” or “very much better”), percentage ([2]; 60 mg): 76.1%
Satisfaction with study medication (“satisfied” or “extremely satisfied”), percentage ([2]; 60 mg): 82.6%
PGI-C response, OR (95% CI) vs placebo ([2]; 60 mg): 3.83
Satisfaction with study medication, OR (95% CI) vs placebo ([2]; 60 mg): 3.58
odds of achieving PGI-C response, times that of placebo ([2]; each atogepant group): ≥ 3 times
odds for being treatment satisfaction responders, times greater than placebo ([2]; week 12, atogepant groups): 2-4 times
proportion of patients satisfied with treatment [2, 3]: 78%-83%
proportion of patients who were PGI-C responders [2, 3]: 72%-76% and 70-80%
Participants with postbaseline ALT or AST (U/L) >=1 * ULN, (%) (ALT or AST; Atogepant 10 mg QD (N = 93)): (18.5) %
Participants with postbaseline ALT or AST (U/L) >=1 * ULN, n/N1 (ALT or AST; Atogepant 10 mg QD (N = 93)): 17/92
Participants with postbaseline ALT or AST (U/L) >=1.5 * ULN, (%) (ALT or AST; Atogepant 10 mg QD (N = 93)): (4.3) %
Participants with postbaseline ALT or AST (U/L) >=1.5 * ULN, n/N1 (ALT or AST; Atogepant 10 mg QD (N = 93)): 4/92
Participants with postbaseline ALT or AST (U/L) >=2 * ULN, (%) (ALT or AST; Atogepant 10 mg QD (N = 93)): (4.3) %
Participants with postbaseline ALT or AST (U/L) >=2 * ULN, n/N1 (ALT or AST; Atogepant 10 mg QD (N = 93)): 4/92
Participants with postbaseline ALT or AST (U/L) >=3 * ULN, (%) (ALT or AST; Atogepant 10 mg QD (N = 93)): (2.2) %
Participants with postbaseline ALT or AST (U/L) >=3 * ULN, n/N1 (ALT or AST; Atogepant 10 mg QD (N = 93)): 2/92
Participants with postbaseline ALT or AST (U/L) >=5 * ULN, n/N1 (ALT or AST; Atogepant 10 mg QD (N = 93)): 0
Participants with postbaseline ALT or AST (U/L) >=10 * ULN, n/N1 (ALT or AST; Atogepant 10 mg QD (N = 93)): 0
Participants with postbaseline ALT or AST (U/L) >=20 * ULN, n/N1 (ALT or AST; Atogepant 10 mg QD (N = 93)): 0
Participants with Concurrent Elevations ALT or AST >=3 * ULN AND Bilirubin Total >=1.5 * ULN, n/N1 (ALT or AST; [4]): 0
Participants with Concurrent Elevations ALT or AST >=3 * ULN AND Bilirubin Total >=2 * ULN, n/N1 (ALT or AST; [4]): 0
Participants with Potential Hy's Law ALT or AST >=3 * ULN AND Bilirubin Total >=2 * ULN AND ALP <2 * ULN, n/N1 (ALT or AST; [4]): 0
Participants with postbaseline ALT or AST (U/L) >=1 * ULN, (%) (ALT or AST; Atogepant 30 mg BID (N = 86)): (13.1) %
Participants with postbaseline ALT or AST (U/L) >=1 * ULN, n/N1 (ALT or AST; Atogepant 30 mg BID (N = 86)): 11/84
Participants with postbaseline ALT or AST (U/L) >=1.5 * ULN, (%) (ALT or AST; Atogepant 30 mg BID (N = 86)): (2.4) %
Participants with postbaseline ALT or AST (U/L) >=1.5 * ULN, n/N1 (ALT or AST; Atogepant 30 mg BID (N = 86)): 2/84
Participants with postbaseline ALT or AST (U/L) >=2 * ULN, (%) (ALT or AST; Atogepant 30 mg BID (N = 86)): (2.4) %
Participants with postbaseline ALT or AST (U/L) >=2 * ULN, n/N1 (ALT or AST; Atogepant 30 mg BID (N = 86)): 2/84
Participants with postbaseline ALT or AST (U/L) >=3 * ULN, (%) (ALT or AST; Atogepant 30 mg BID (N = 86)): (1.2) %
Participants with postbaseline ALT or AST (U/L) >=3 * ULN, n/N1 (ALT or AST; Atogepant 30 mg BID (N = 86)): 1/84
Participants with postbaseline ALT or AST (U/L) >=5 * ULN, n/N1 (ALT or AST; Atogepant 30 mg BID (N = 86)): 0
Participants with postbaseline ALT or AST (U/L) >=10 * ULN, n/N1 (ALT or AST; Atogepant 30 mg BID (N = 86)): 0
Participants with postbaseline ALT or AST (U/L) >=20 * ULN, n/N1 (ALT or AST; Atogepant 30 mg BID (N = 86)): 0
Participants with Concurrent Elevations ALT or AST >=3 * ULN AND Bilirubin Total >=1.5 * ULN, n/N1 (ALT or AST; [5]): 0
Participants with Concurrent Elevations ALT or AST >=3 * ULN AND Bilirubin Total >=2 * ULN, n/N1 (ALT or AST; [5]): 0
